Assay results as given in PMC7265341, “Quantifying CDK inhibitor selectivity in live cells” (Nature Communications, 2020).
Like-named read-outs stand apart in the source and are kept apart here.

What was measured:
[1] = target: CDK7 (Homo sapiens, UniProt P50613); assay: NanoBRET live-cell target engagement, NanoLuc-CDK7 in HEK-293; assay type: binding; conditions: 10µM
[2] = target: CDK13/Cyclin K (Homo sapiens, UniProt Q14004); assay: NanoBRET live-cell target engagement, CDK13-NanoLuc/Cyclin K in HEK-293; assay type: binding
[3] = target: CDK14/Cyclin Y (Homo sapiens, UniProt O94921); assay: NanoBRET live-cell target engagement, CDK14-NanoLuc/Cyclin Y in HEK-293; assay type: binding; conditions: 10µM
[4] = target: CDK15/Cyclin Y (Homo sapiens, UniProt Q96Q40); assay: NanoBRET live-cell target engagement, NanoLuc-CDK15/Cyclin Y in HEK-293; assay type: binding; conditions: 10µM
[5] = target: CDK16/Cyclin Y (Homo sapiens, UniProt Q00536); assay: NanoBRET live-cell target engagement, CDK16-NanoLuc/Cyclin Y in HEK-293; assay type: binding; conditions: 10µM
[6] = target: CDK17/Cyclin Y (Homo sapiens, UniProt Q00537); assay: NanoBRET live-cell target engagement, CDK17-NanoLuc/Cyclin Y in HEK-293; assay type: binding; conditions: 10µM
[7] = target: CDK10/Cyclin L2 (Homo sapiens, UniProt Q15131); assay: NanoBRET live-cell target engagement, CDK10-NanoLuc/Cyclin L2 in HEK-293; conditions: for IC50: read-out: CDK10/L2 IC50
[8] = target: CDK11B/Cyclin L2 (Homo sapiens, UniProt P21127); assay: NanoBRET live-cell target engagement, CDK11B-NanoLuc/Cyclin L2 in HEK-293; assay type: binding; conditions: 10µM
[9] = target: CDK19/Cyclin C (Homo sapiens, UniProt Q9BWU1); assay: NanoBRET live-cell target engagement, NanoLuc-CDK19/Cyclin C in HEK-293; conditions: 10µM
[10] = target: T1, CDK11A/Cyclin L2 (Homo sapiens, UniProt Q9UQ88); assay: NanoBRET live-cell target engagement, CDK11A-NanoLuc/Cyclin L2 in HEK-293; assay type: binding
T1 sequence (Q9UQ88 1-783): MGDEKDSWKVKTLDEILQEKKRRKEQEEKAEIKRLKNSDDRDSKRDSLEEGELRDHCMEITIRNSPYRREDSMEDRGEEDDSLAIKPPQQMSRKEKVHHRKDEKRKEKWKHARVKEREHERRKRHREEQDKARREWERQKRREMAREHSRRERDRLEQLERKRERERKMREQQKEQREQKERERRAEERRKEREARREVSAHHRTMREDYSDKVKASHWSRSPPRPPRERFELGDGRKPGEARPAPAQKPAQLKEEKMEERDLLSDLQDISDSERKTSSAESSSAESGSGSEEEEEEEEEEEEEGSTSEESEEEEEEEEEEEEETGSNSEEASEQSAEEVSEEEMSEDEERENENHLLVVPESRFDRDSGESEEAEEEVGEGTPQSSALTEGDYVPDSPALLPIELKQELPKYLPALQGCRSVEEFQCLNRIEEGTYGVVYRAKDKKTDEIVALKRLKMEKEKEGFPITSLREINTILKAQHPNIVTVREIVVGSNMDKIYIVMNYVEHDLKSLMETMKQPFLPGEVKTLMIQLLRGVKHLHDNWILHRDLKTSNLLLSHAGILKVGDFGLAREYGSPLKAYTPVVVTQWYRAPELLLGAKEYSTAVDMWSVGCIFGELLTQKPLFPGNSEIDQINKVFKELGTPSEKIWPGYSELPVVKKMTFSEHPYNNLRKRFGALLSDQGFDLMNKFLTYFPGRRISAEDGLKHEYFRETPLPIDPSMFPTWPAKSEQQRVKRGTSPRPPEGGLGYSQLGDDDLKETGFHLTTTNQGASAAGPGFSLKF

[11] = target: CDK2/Cyclin E1 (Homo sapiens, UniProt P24941); assay: NanoBRET live-cell target engagement, CDK2-NanoLuc/Cyclin E1 in HEK-293; assay type: binding; conditions: 10µM
[12] = target: CDK8/Cyclin C (Homo sapiens, UniProt P49336); assay: NanoBRET live-cell target engagement, NanoLuc-CDK8/Cyclin C in HEK-293; assay type: binding; conditions: 10µM
[13] = target: CDK4/Cyclin D1 (Homo sapiens, UniProt P11802); assay: NanoBRET live-cell target engagement, NanoLuc-CDK4/Cyclin D1 in HEK-293; assay type: binding; conditions: 10µM
[14] = target: CDK12/Cyclin K (Homo sapiens, UniProt Q9NYV4); assay: NanoBRET live-cell target engagement, CDK12-NanoLuc/Cyclin K in HEK-293; assay type: binding
[15] = target: CDK1/Cyclin E1 (Homo sapiens, UniProt P06493); assay: NanoBRET live-cell target engagement, CDK1-NanoLuc/Cyclin E1 in HEK-293; assay type: binding; conditions: 10µM
[16] = target: CDK3/Cyclin E1 (Homo sapiens, UniProt Q00526); assay: NanoBRET live-cell target engagement, CDK3-NanoLuc/Cyclin E1 in HEK-293; assay type: binding; conditions: 10µM
[17] = target: CDK9/Cyclin K (Homo sapiens, UniProt P50750); assay: NanoBRET live-cell target engagement, NanoLuc-CDK9/Cyclin K in HEK-293; assay type: binding; conditions: 10µM
[18] = target: CDK20/Cyclin H (Homo sapiens, UniProt Q8IZL9); assay: NanoBRET live-cell target engagement, NanoLuc-CDK20/Cyclin H in HEK-293; assay type: binding; conditions: 10µM
[19] = target: CDK5/CDK5R1 (Homo sapiens, UniProt Q00535); assay: NanoBRET live-cell target engagement, CDK5-NanoLuc/CDK5R1 in HEK-293; assay type: binding; conditions: 10µM

Chain of CDK3/Cyclin E1 (Q00526 whole entry): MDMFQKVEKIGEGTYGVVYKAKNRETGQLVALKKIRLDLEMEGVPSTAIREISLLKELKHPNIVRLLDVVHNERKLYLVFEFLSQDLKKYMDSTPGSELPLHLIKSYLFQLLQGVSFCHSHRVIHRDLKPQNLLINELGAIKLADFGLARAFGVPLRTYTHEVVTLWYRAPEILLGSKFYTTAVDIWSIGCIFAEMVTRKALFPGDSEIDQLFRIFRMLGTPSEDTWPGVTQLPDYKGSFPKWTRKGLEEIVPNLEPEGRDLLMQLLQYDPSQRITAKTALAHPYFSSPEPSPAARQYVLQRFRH
Chain of CDK3/Cyclin E1 (P24864 whole entry partner): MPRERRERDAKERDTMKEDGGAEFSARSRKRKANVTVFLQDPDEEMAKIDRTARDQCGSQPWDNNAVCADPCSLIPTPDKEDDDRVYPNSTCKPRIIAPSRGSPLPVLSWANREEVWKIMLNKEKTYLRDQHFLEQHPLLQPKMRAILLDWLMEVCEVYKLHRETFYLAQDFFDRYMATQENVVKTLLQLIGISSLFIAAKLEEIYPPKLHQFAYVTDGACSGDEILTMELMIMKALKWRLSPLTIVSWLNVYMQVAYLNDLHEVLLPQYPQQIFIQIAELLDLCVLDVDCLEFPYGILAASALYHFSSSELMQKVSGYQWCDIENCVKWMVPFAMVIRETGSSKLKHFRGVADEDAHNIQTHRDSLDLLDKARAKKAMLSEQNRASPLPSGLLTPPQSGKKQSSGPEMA
Chain of CDK9/Cyclin K (P50750 whole entry): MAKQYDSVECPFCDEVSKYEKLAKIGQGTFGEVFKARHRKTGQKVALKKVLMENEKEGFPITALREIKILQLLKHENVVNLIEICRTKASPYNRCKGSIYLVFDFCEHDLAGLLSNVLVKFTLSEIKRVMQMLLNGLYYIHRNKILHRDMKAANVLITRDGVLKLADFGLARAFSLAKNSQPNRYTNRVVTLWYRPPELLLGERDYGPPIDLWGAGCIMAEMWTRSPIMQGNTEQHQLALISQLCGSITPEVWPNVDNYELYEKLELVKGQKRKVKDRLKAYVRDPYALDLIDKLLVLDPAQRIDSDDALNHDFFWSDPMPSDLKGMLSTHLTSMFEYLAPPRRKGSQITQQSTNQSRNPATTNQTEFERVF
Chain of CDK9/Cyclin K (O75909 whole entry partner): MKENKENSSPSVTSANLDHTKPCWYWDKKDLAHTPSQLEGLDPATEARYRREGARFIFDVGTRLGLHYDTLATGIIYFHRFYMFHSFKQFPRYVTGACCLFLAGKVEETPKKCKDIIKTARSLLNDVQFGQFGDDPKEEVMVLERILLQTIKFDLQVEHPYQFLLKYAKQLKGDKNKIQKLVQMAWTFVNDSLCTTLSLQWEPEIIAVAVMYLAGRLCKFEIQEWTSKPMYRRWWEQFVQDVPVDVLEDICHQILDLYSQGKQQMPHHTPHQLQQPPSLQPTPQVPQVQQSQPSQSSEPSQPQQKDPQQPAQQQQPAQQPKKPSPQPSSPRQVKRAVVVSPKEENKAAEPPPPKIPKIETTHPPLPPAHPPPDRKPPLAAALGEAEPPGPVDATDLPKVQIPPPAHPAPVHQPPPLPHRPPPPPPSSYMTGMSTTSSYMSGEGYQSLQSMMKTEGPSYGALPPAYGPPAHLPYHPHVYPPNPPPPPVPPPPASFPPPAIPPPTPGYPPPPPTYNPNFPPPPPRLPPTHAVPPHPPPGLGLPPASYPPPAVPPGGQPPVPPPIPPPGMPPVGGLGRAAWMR
Chain of CDK12/Cyclin K (Q9NYV4 1-1481 isoform Q9NYV4-2): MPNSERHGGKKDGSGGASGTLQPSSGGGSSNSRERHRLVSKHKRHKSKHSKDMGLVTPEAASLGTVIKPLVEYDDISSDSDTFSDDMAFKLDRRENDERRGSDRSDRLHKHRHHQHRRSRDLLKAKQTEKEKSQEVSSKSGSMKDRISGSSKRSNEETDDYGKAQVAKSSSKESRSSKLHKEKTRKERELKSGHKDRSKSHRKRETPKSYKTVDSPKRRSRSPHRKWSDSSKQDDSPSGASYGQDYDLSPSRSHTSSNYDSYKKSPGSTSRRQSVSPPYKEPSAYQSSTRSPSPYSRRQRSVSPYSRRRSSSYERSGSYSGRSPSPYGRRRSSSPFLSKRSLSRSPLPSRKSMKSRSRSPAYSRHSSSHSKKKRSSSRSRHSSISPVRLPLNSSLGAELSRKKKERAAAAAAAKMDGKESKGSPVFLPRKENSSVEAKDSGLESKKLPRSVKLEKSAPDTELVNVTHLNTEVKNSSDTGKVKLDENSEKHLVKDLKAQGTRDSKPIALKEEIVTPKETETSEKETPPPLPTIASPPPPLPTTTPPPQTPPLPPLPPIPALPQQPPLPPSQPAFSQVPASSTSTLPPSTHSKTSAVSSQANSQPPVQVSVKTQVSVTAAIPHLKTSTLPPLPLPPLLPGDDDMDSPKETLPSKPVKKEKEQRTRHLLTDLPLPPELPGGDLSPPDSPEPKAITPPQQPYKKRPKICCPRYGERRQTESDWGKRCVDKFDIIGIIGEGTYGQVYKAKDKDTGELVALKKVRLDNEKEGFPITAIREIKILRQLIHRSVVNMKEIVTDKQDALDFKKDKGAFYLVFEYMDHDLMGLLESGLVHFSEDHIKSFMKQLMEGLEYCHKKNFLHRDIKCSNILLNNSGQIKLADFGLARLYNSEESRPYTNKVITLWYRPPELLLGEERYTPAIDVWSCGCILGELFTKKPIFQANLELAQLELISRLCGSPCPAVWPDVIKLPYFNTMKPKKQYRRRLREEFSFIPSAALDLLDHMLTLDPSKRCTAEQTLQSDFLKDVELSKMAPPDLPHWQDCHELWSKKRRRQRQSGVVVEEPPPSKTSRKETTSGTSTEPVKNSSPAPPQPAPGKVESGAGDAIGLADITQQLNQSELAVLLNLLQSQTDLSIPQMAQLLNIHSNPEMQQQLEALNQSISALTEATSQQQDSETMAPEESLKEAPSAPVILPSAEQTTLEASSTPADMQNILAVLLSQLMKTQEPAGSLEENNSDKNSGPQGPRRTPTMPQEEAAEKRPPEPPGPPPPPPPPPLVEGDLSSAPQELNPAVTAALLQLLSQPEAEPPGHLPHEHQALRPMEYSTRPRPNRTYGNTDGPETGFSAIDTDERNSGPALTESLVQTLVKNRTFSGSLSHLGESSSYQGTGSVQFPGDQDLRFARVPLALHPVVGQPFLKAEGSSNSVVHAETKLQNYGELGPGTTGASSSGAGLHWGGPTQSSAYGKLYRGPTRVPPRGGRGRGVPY
Chain of CDK12/Cyclin K (O75909 whole entry partner): as the sequence (O75909 whole entry partner) above
Chain of CDK15/Cyclin Y (Q96Q40 whole entry): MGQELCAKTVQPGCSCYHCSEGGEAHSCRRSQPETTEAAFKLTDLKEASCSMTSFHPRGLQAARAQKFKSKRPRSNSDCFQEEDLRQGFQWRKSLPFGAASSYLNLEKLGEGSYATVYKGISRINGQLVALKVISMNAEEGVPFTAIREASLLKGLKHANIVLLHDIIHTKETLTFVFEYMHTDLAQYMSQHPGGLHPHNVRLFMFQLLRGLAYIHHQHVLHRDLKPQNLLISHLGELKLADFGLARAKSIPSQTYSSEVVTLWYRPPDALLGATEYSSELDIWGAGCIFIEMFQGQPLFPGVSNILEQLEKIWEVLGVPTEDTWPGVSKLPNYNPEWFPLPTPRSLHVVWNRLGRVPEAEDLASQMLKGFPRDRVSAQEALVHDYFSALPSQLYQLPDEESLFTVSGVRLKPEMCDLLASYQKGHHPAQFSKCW
Chain of CDK15/Cyclin Y (Q8ND76 whole entry partner): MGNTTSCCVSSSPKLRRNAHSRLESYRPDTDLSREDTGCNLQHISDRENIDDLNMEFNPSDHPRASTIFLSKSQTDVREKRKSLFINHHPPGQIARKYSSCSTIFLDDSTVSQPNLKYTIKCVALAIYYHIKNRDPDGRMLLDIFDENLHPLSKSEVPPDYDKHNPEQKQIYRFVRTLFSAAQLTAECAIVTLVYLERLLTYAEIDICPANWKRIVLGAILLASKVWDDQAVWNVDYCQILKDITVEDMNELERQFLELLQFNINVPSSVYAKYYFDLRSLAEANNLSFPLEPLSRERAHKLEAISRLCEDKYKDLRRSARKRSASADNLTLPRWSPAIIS
Chain of CDK11B/Cyclin L2 (P21127 1-782 isoform P21127-2): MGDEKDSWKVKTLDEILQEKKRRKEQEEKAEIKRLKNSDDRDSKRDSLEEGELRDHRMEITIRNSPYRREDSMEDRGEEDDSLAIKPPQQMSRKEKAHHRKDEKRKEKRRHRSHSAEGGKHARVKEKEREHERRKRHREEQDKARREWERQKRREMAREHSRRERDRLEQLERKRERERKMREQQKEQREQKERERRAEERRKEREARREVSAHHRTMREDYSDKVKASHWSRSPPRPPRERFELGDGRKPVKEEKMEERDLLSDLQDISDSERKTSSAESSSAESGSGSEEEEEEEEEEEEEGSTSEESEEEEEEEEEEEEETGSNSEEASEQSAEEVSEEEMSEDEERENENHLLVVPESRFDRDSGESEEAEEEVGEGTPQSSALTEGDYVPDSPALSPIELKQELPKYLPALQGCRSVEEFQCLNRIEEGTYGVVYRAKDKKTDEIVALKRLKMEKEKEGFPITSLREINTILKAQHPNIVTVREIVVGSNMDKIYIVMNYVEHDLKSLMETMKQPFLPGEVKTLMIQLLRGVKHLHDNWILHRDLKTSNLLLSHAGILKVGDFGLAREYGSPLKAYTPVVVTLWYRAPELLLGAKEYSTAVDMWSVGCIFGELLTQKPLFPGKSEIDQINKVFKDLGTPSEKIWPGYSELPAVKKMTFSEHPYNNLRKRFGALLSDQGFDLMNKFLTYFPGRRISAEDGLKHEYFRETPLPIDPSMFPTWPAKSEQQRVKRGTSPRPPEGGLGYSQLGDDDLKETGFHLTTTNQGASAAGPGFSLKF

## CN(C)C/C=C/C(=O)Nc1ccc(C(=O)Nc2cccc(Nc3ncc(Cl)c(-c4c[nH]c5ccccc45)n3)c2)cc1 [THZ1]
[1]; average of experiments
  CDK7 Inhibition at 10µM (%): 83.9%
[1]; independent experiment 1
  CDK7 Inhibition at 10µM (%): 70.6%
[1]; independent experiment 2
  CDK7 Inhibition at 10µM (%): 97.1%
[2]; average of experiments
  CDK13/K Inhibition at 10µM (%): 48.1%
[2]; independent experiment 1
  CDK13/K Inhibition at 10µM (%): 34.3%
[2]; independent experiment 2
  CDK13/K Inhibition at 10µM (%): 62.0%
[2]; primary screen, live HEK-293
  CDK13 occupancy at 10 µM: ~50%
[3]; average of experiments
  CDK14/Y Inhibition at 10µM (%): 33.1%
[3]; independent experiment 1
  CDK14/Y Inhibition at 10µM (%): 6.6%
[3]; independent experiment 2
  CDK14/Y Inhibition at 10µM (%): 59.6%
[4]; average of experiments
  CDK15/Y Inhibition at 10µM (%): 64.9%
[4]; independent experiment 1
  CDK15/Y Inhibition at 10µM (%): 40.7%
[4]; independent experiment 2
  CDK15/Y Inhibition at 10µM (%): 89.2%
[5]; independent experiment 1
  CDK16/Y Inhibition at 10µM (%): 74.4%
[5]; independent experiment 2
  CDK16/Y Inhibition at 10µM (%): 11.2%
[6]; average of experiments
  CDK17/Y Inhibition at 10µM (%): 50.4%
[6]; independent experiment 1
  CDK17/Y Inhibition at 10µM (%): 73.0%
[6]; independent experiment 2
  CDK17/Y Inhibition at 10µM (%): 27.8%
[7]; average of experiments
  CDK10/L2 Inhibition at 10µM (%): 48.0%
[7]; independent experiment 1
  CDK10/L2 Inhibition at 10µM (%): 11.4%
  IC50: 660 nM
[7]; independent experiment 2
  CDK10/L2 Inhibition at 10µM (%): 84.6%
  IC50: 790 nM
[7]; average (± SEM where n=3)
  IC50: 1000 ± 300 nM
[7]; independent experiment 3
  IC50: 1500 nM
[8]; average of experiments
  CDK11b/L2 Inhibition at 10µM (%): 34.5%
[8]; independent experiment 1
  CDK11b/L2 Inhibition at 10µM (%): 13.3%
[8]; independent experiment 2
  CDK11b/L2 Inhibition at 10µM (%): 55.7%
[9]; average of experiments
  CDK19/C Inhibition at 10µM (%): 66.6%
[9]; independent experiment 1
  CDK19/C Inhibition at 10µM (%): 44.1%
[9]; independent experiment 2
  CDK19/C Inhibition at 10µM (%): 89.1%
[10]; average of experiments
  CDK11a/L2 Inhibition at 10µM (%): 42.5%
[10]; independent experiment 1
  CDK11a/L2 Inhibition at 10µM (%): 8.0%
[10]; independent experiment 2
  CDK11a/L2 Inhibition at 10µM (%): 77.1%
[10]; independent experiment 1, read-out: CDK11a/L2 IC50
  IC50: 450 nM
[10]; independent experiment 2, read-out: CDK11a/L2 IC50
  IC50: 230 nM
[10]; independent experiment 3, read-out: CDK11a/L2 IC50
  IC50: 218 nM
[10]; live HEK-293, 2 h, mean ± S.E.M. (n=3) or mean (n=2), read-out: IC50 for CDK/cyclin complexes, CDK11a/L2
  IC50: 300 nM
[11]; average of experiments
  CDK2/E1 Inhibition at 10µM (%): 16.1%
[11]; independent experiment 1
  CDK2/E1 Inhibition at 10µM (%): 27.6%
[11]; independent experiment 2
  CDK2/E1 Inhibition at 10µM (%): 4.6%
[12]; average of experiments
  CDK8/C Inhibition at 10µM (%): 62.9%
[12]; independent experiment 1
  CDK8/C Inhibition at 10µM (%): 34.6%
[12]; independent experiment 2
  CDK8/C Inhibition at 10µM (%): 91.2%
[13]; average of experiments
  CDK4/D1 Inhibition at 10µM (%): 53.8%
[13]; independent experiment 1
  CDK4/D1 Inhibition at 10µM (%): 13.3%
[13]; independent experiment 2
  CDK4/D1 Inhibition at 10µM (%): 94.2%
[14]; average of experiments
  CDK12/K Inhibition at 10µM (%): 45.5%
[14]; independent experiment 1
  CDK12/K Inhibition at 10µM (%): 26.4%
[14]; independent experiment 2
  CDK12/K Inhibition at 10µM (%): 64.6%
[14]; primary screen, live HEK-293
  CDK12 occupancy at 10 µM: ~50%
[15]; average of experiments
  CDK1/E1 Inhibition at 10µM (%): 91.9%
[15]; independent experiment 1
  CDK1/E1 Inhibition at 10µM (%): 87.2%
[15]; independent experiment 2
  CDK1/E1 Inhibition at 10µM (%): 96.6%
[16]; average of experiments
  CDK3/E1 Inhibition at 10µM (%): 55.0%
[16]; independent experiment 1
  CDK3/E1 Inhibition at 10µM (%): 14.7%
[16]; independent experiment 2
  CDK3/E1 Inhibition at 10µM (%): 95.2%
[17]; average of experiments
  CDK9/K Inhibition at 10µM (%): 70.0%
[17]; independent experiment 1
  CDK9/K Inhibition at 10µM (%): 44.1%
[17]; independent experiment 2
  CDK9/K Inhibition at 10µM (%): 96.0%
[18]; independent experiment 1
  CDK20/H Inhibition at 10µM (%): 63.8%
[18]; independent experiment 2
  CDK20/H Inhibition at 10µM (%): 90.1%
[19]; average of experiments
  CDK5/CDK5R1 Inhibition at 10µM (%): 42.5%
[19]; independent experiment 1
  CDK5/CDK5R1 Inhibition at 10µM (%): 19.2%
[19]; independent experiment 2
  CDK5/CDK5R1 Inhibition at 10µM (%): 65.8%
